Experimental data from PMC6375636, “Monotherapy with a low-dose lipopeptide HIV fusion inhibitor maintains long-term viral suppression in rhesus macaques” (PLoS Pathogens, 2019).
Peptide text beside a SMILES is read from it. * marks the point of attachment. Stearoyl = CCCCCCCCCCCCCCCCCC(=O)*

Experiments:
[1] = target: T1, gp41 NHR-derived target mimic peptide N39 (Human immunodeficiency virus type 1 group M subtype B, UniProt P04578); assay: CD spectroscopy of lipopeptides in complex with target mimic peptide N39; format: binding, HIV-1; set-up: [θ]222: unit not given here; conditions: complex with N39, each peptide 10 μM in PBS; representative of 2 assays
T1 construct: the gp41 NHR-derived target mimic peptide N39
Source text: Spectra were corrected by subtracting a solvent blank.

[2] = target: T2, HIV-1HXB2 Env (Human immunodeficiency virus type 1 group M subtype B, UniProt P04578); assay: HIV-1HXB2 Env-mediated cell-cell fusion (HL2/3 effector, TZM-bl target, luciferase reporter); format: cell-based
T2 construct: HL2/3 cells, which stably express high levels of Env, Gag, Tat, Rev, and Nef proteins of the integrated HIV-1 molecular clone HXB2/3gpt; host or cells: HL2/3 cells (effector), cocultured with TZM-bl target cells
Description: The inhibitory activities of inhibitors on HIV-1HXB2 Env-mediated cell-cell fusion were determined by a reporter gene assay based on the activation of an HIV LTR-driven luciferase cassette in TZM-bl cells (target) by HIV-1 tat from HL2/3 cells (effector). Briefly, 1 x 10^4/well of TZM-bl cells were plated in 96-well plates and incubated at 37°C overnight. Then, 3 x 10^4/well of HL2/3 cells were cocultured with target cells for 6 h at 37°C in the presence or absence of an inhibitor at graded concentrations. Luciferase activity was measured using luciferase assay reagents and a Luminescence Counter (Promega, Madison, Wisconsin, USA).

[3] = system: HIV-1NL4-3(D36G) pseudovirus; format: cell-based; conditions: Fig 1; NL4-3(D36G) pseudovirus; mean ± SD of three assays in triplicate; read-out: Anti-HIV activity (IC50, pM) NL4-3 entry
Description: The inhibitory activities of inhibitors against HIV-1 pseudoviruses and replication-competent isolates were measured as described previously. Briefly, HIV-1 pseudoviruses were generated via the cotransfection of HEK293T cells with an Env-expressing plasmid and a backbone plasmid that encodes Env-defective, luciferase-expressing HIV-1 genome (pSG3Δenv). Viral stocks of replication-competent HIV-1 isolates were generated by transfecting viral molecular clones into HEK293T cells. […] Inhibitors were prepared in 3-fold dilutions, mixed with 100 TCID50 of a virus, and then incubated for 1 h at room temperature. […] Luciferase activity was measured as described above.

[4] = target: HIV-1JRCSF; format: cell-based; conditions: Fig 1; replication-competent virus; mean ± SD of three assays in triplicate; read-out: Anti-HIV activity (IC50, pM) JRCSF infection
Description: The inhibitory activities of inhibitors against HIV-1 pseudoviruses and replication-competent isolates were measured as described previously. Briefly, HIV-1 pseudoviruses were generated via the cotransfection of HEK293T cells with an Env-expressing plasmid and a backbone plasmid that encodes Env-defective, luciferase-expressing HIV-1 genome (pSG3Δenv). Viral stocks of replication-competent HIV-1 isolates were generated by transfecting viral molecular clones into HEK293T cells. Culture supernatants were harvested at 48 h posttransfection, and 50% tissue culture infectious doses (TCID50) in TZM-bl cells were determined. Inhibitors were prepared in 3-fold dilutions, mixed with 100 TCID50 of a virus, and then incubated for 1 h at room temperature. The mixture was added to TZM-bl cells (10^4/well), and the cells were incubated for additional 48 h at 37°C. Luciferase activity was measured as described above.

[5] = lipopeptide alone, 10 μM in PBS; [θ]222 / -33,000; representative of 2 assays

T1 sequence (P04578 528-566): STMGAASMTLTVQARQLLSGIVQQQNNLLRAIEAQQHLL
T2 sequence (P04578 512-856): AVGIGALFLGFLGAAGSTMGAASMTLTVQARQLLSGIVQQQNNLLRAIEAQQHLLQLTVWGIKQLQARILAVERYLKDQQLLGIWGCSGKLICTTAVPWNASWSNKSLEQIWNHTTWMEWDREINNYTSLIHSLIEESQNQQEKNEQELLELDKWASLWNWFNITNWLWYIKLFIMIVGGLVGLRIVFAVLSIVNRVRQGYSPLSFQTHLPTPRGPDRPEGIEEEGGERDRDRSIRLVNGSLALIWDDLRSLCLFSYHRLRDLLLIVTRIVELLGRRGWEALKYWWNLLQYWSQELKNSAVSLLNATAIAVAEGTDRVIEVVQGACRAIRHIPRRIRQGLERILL

In the case of CCCCCCCCCCCCCCCCCC(=O)NCCCC[C@H](NC(=O)[C@H](CCCCN)NC(=O)[C@H](CC(C)C)NC(=O)[C@H](CCC(=O)O)NC(=O)[C@H](CCC(=O)O)NC(=O)[C@H](CCC(=O)O)NC(=O)[C@H](CC(N)=O)NC(=O)[C@H](CCCCN)NC(=O)[C@H](CCCCN)NC(=O)[C@H](CCC(N)=O)NC(=O)[C@H](CCC(N)=O)NC(=O)[C@H](CCC(=O)O)NC(=O)[C@H](CCC(=O)O)NC(=O)[C@H](C)NC(=O)[C@H](CCCCN)NC(=O)[C@H](CCCCN)NC(=O)[C@H](CC(C)C)NC(=O)[C@H](CC(C)C)NC(=O)[C@H](CCC(=O)O)NC(=O)[C@H](CCC(=O)O)NC(=O)[C@@H](NC(=O)[C@H](CCCCN)NC(=O)[C@H](CCC(N)=O)NC(=O)[C@H](CCC(=O)O)NC(=O)[C@H](Cc1c[nH]c2ccccc12)NC(C)=O)[C@@H](C)CC)C(N)=O [LP-91] (Ac-WEQKIEELLKKAEEQQKKNEEELKK(Stearoyl)-NH2), the “Helix content (%)” value [1] is reported as 55%, the “[θ]222” value [1] is reported as -18156 and the IC50 [2] is reported as 0.0131 ± 0.00125 nM. The IC50 [3] was 7.33 ± 0.49 pM, the IC50 [4] was 11.1 ± 2.13 pM and the “Helix content (%)” value [5] was 42%.
For CCCCCCCCCCCCCCCCCC(=O)NCCCC[C@H](NC(=O)[C@H](CCCCN)NC(=O)[C@H](CC(C)C)NC(=O)[C@H](CCC(=O)O)NC(=O)[C@H](CCC(=O)O)NC(=O)[C@H](CCC(=O)O)NC(=O)[C@H](CC(N)=O)NC(=O)[C@H](CCCCN)NC(=O)[C@H](CCCCN)NC(=O)[C@H](CCC(N)=O)NC(=O)[C@H](CCC(N)=O)NC(=O)[C@H](CCC(=O)O)NC(=O)[C@H](CCC(=O)O)NC(=O)[C@H](C)NC(=O)[C@H](CCCCN)NC(=O)[C@H](CCCCN)NC(=O)[C@H](CC(C)C)NC(=O)[C@H](CC(C)C)NC(=O)[C@H](CCC(=O)O)NC(=O)[C@H](CCC(=O)O)NC(=O)[C@@H](NC(C)=O)[C@@H](C)CC)C(N)=O [LP-92] (Ac-IEELLKKAEEQQKKNEEELKK(Stearoyl)-NH2), the “Helix content (%)” value [1] was 38%, the “[θ]222” value [1] was -12476 and the IC50 [2] was 0.189 ± 0.0199 nM. For the same molecule, the IC50 [3] was 168 ± 20.6 pM, the IC50 [4] was 229 ± 28.4 pM and the “Helix content (%)” value [5] was 16%.
